{"source": "patent US20130217721A1", "about": "“COMPOSITIONS AND METHODS FOR DETECTION AND TREATMENT OF B-RAF INHIBITOR-RESISTANT MELANOMAS” (The Regents of the University of California, priority 2010, published 2013)", "key": {"[1]": {"test_system": "M229 R sub-lines (M229 R5)", "assay": "Cell survival / proliferation assay (72 h)", "format": "cell-based, human", "conditions": "M229 R sub-lines", "protocol": "(§1) Cells were maintained in Dulbecco's modified Eagle medium (DMEM) with 10 or 20% fetal bovine serum and glutamine. shRNAs were sub-cloned into the lentiviral vector pLL3.7 and infections carried out with protamine sulphate. Stocks of PLX4032 (Plexxikon) and AZD6244 (commercially available) were made in DMSO. Cells were quantified using CellTiter-GLO Luminescence (Promega).\n(§2) Cell proliferation experiments were performed in a 96-well format (five replicates), and baseline quantification performed at 24 h after cell seeding along with initiation of drug treatments (72 h). Stocks and dilutions of PLX4032 (Plexxikon), AZD6244 (Selleck Chemicals) and U0126 (Promega) were made in DMSO. siRNA pool (Dharmacon) transfections were carried out in 384-well format. TransIT transfection reagent (Mirus) was added to each well and incubated at 37° C. for 20 min. Subsequently, cells were reverse transfected, and the mixture was incubated for 51-61 h at 37° C. Cells were quantified using CellTiter 96 Aqueous One Solution (Promega) or CellTiter-GLO Luminescence (Promega) following the manufacturer's recommendations."}, "[2]": {"test_system": "M238 R sub-lines (M238 R1)", "assay": "Cell survival / proliferation assay (72 h)", "format": "cell-based, human", "conditions": "M238 R sub-lines", "protocol": "as §1, §2"}, "[3]": {"test_system": "Pt48 R short-term culture", "assay": "Cell survival / proliferation assay (72 h)", "format": "cell-based, human", "protocol": "as §1, §2"}, "[4]": {"test_system": "SKMEL-239", "assay": "Cell cycle and apoptosis analysis", "format": "cell-based, human", "conditions": "SKMEL-239 parental, 2 μM PLX4032", "protocol": "Cell proliferation and cell cycle analysis. All melanoma cell lines were generated by A. Houghton (MSKCC) or obtained from ATCC. 293H cells were obtained from Invitrogen. Cells were maintained in DMEM (293H and MEFs), or RPMI (all other cell lines) supplemented with 2 mM glutamine, antibiotics and 10% fetal bovine serum. We confirmed by DNA fingerprinting^20 that all PLX4032-resistant, SKMEL-239 clones were derived from the same patient, thus excluding the possibility of contamination (Table 6). For proliferation assays, cells were plated in 6 well plates and 24 hours later were treated with varying concentrations of inhibitors as indicated. IC50 values were calculated using Graph Pad Prism v.5. For cell cycle and apoptosis studies, cells were seeded in 6 well dishes the day prior to drug treatment. For analysis, both adherent and floating cells were harvested and stained with ethidium bromide as described previously^21."}, "[5]": {"test_system": "M249 R sub-line (M249 R4)", "assay": "Cell survival / proliferation assay (72 h)", "format": "cell-based, human", "conditions": "M249 R sub-lines", "protocol": "as §1, §2\n(§3) Cell culture, infections and drug treatments. Cells were maintained in DMEM with 10 or 20% fetal bovine serum and glutamine. shRNAs for B-RAF and C-RAF were sub-cloned into the lentiviral vector pLL3.7; pBabe B-RAF (V600E) was purchase (plasmid 17544, Addgene); viral supernatants generated by co-transfection with three packaging plasm ids into HEK293T cells; and infections carried out with protamine sulfate. Stocks and dilutions of PLX4032 (Plexxikon, Berkeley, Calif.) and AZD6244 (commercially available) were made in DMSO. Cells were quantified using CellTiter-GLO Luminescence (Promega) or crystal violet staining followed by NIH Image J quantification."}, "[6]": {"target": "p61 BRAF(V600E) (Homo sapiens, UniProt P15056, DEL169-380/V600E)", "sequence (P15056 with tags, fused parts or gaps DEL169-380/V600E)": "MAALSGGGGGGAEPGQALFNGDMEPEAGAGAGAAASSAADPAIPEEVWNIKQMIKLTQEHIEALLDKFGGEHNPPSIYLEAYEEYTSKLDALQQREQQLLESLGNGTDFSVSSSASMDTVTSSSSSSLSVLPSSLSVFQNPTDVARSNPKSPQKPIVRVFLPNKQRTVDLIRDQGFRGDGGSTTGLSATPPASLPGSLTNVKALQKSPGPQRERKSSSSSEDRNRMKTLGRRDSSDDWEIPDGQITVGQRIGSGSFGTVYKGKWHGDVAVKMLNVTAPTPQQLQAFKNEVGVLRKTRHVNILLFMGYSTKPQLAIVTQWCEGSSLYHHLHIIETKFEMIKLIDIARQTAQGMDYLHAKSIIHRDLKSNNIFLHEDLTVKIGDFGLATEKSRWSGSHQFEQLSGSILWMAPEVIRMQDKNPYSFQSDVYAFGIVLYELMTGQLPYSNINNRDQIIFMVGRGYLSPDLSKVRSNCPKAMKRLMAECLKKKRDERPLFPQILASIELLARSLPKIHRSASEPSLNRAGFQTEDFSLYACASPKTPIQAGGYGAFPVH", "assay": "ERK signaling in cells ectopically expressing p61 BRAF(V600E)", "format": "cell-based", "from_the_text": "(§4) FIGS. 6A-6E. […] FIG. 6A. PCR analysis of BRAF in cDNA from parental (P) and C3 cells. Primers were designed at the N-terminus and C-terminus of BRAF. […] Abbreviations: CR1: Conserved Region 1, CR2: Conserved Region 2, CR3: Conserved Region 3, RBD: RAS-binding domain, CRD: Cystine-Rich Domain, AS: Activation Segment, KD: Kinase Domain. FIG. 6B. Full length wild-type BRAF and the 1.7 kb/61 kd splice variant of BRAF(V600E) were cloned into a pcDNA3.1 vector with a FLAG tag at the C-terminus and expressed in 293H cells. The effect of PLX4032 (2 μM for 1 hour) on ERK signaling in the presence of p61 BRAF(V600E) was analyzed by western blot for pMEK and pERK. FIG. 6C. To compare levels of dimerization, 293H cells co-expressing FLAG tagged and V5-tagged p61 BRAF(V600E), full length BRAF(V600E) and the corresponding dimerization-deficient mutants p61 BRAF(V600E/R509H) and BRAF(V600E/R509H) were lysed followed by immunoprecipitation with FLAG antibody. Western blots with V5 or FLAG antibodies were performed as indicated. FIG. 6D. Comparison of MEK/ERK activation and sensitivity of ERK signaling to PLX4032 (2 μM for 1 hour) in 293H cells expressing either Flag-tagged BRAF(V600E) or the dimerization mutant Flag-tagged BRAF(V600E/R509H). FIG. 6E. Constructs expressing V5-tagged BRAF(V600E), p61 BRAF(V600E) or the dimerization mutant p61 BRAF(V600E/R509H) were transfected into 293H cells and treated with DMSO or 2 μM PLX4032 for 1 hour.\nPlasmids/Trasfections. Flag-tagged BRAF constructs have been described previously^4. All other plasmids were created using standard cloning methods, with pcDNA3.1 (Invitrogen) as a vector. Mutations were introduced using the site-directed Mutagenesis Kit (Stratagene). For transfection studies, cells were seeded at 35 mm or 100 mm plates and transfected the following day using Lipofectamine 2000 (Invitrogen). Cells were collected 24 hours later for subsequent analysis."}, "[7]": {"target": "BRAF(V600E/R509H) (Homo sapiens, UniProt P15056, R509H/V600E)", "sequence (P15056 whole entry R509H/V600E)": "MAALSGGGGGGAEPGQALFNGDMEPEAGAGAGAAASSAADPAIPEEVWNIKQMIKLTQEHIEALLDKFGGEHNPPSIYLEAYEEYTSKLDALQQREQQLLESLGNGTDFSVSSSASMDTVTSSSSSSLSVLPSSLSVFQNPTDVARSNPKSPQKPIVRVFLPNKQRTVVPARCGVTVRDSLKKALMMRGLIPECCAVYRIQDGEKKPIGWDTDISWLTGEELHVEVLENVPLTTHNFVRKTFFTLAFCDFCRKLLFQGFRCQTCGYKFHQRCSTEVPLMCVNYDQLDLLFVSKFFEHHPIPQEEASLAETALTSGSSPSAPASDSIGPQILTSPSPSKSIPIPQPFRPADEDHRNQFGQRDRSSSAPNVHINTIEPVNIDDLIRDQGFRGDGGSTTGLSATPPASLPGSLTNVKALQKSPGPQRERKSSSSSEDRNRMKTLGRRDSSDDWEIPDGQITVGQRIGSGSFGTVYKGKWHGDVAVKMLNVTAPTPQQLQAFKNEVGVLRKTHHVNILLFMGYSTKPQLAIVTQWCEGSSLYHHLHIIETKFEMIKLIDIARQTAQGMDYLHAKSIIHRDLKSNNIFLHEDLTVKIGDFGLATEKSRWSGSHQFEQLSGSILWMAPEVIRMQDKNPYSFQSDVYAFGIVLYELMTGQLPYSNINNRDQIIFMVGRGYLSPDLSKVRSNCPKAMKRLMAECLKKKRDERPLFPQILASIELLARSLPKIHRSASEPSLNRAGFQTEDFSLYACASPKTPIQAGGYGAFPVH", "assay": "ERK signaling in 293H cells expressing BRAF(V600E/R509H)", "format": "cell-based", "conditions": "2 μM PLX4032 for 1 hour", "from_the_text": "as §4, with “Constructs expressing V5-tagged BRAF(V600E), p61 BRAF(V600E) or the dimerization mutant p61 BRAF(V600E/R509H) were transfected into 293H cells and treated with DMSO or 2 μM PLX4032 for 1 hour.” left out"}, "[8]": {"test_system": "M395 R", "assay": "Cell survival assay (72 h)", "format": "cell-based, human", "from_the_text": "as §3"}, "[9]": {"conditions": "Homo sapiens, not reached up to 10 μM, read-out: GI50, concentration of drug that inhibits growth of cells by 50%"}}, "note": "“Also recorded” adds a separate entry of the source."}
{"smiles": "CCCS(=O)(=O)Nc1ccc(F)c(C(=O)c2c[nH]c3ncc(-c4ccc(Cl)cc4)cc23)c1F", "note": "[PLX4032]", "values": [{"measurement": "GI50", "setting": "[1]; [9]", "value": "> 10", "unit": "µM"}, {"measurement": "growth at low PLX4032 concentrations", "setting": "[1]; in contrast to parental cells", "value": "paradoxically enhanced growth"}, {"measurement": "GI50", "setting": "[2]; [9]", "value": "> 10", "unit": "µM"}, {"measurement": "growth at low PLX4032 concentrations", "setting": "[2]; in contrast to parental cells", "value": "paradoxically enhanced growth"}, {"measurement": "growth resistance to B-RAF inhibitor", "setting": "[3]", "value": "resistance"}, {"measurement": "cell cycle effect", "setting": "[4]", "value": "accumulation of cells in G1"}, {"measurement": "cell death", "setting": "[4]", "value": "significant induction of cell death"}, {"measurement": "GI50", "setting": "[5]; [9]", "value": "> 10", "unit": "µM"}, {"measurement": "growth at low PLX4032 concentrations", "setting": "[5]; in contrast to parental cells", "value": "paradoxically enhanced growth"}, {"measurement": "sensitivity of ERK signaling (pMEK, pERK)", "setting": "[6]; 293H cells, 2 μM PLX4032 for 1 hour", "value": "resistant; also recorded: insensitive"}, {"measurement": "inhibition of ERK signaling", "setting": "[6]; HT-29 (BRAF(V600E)) colorectal carcinoma cells expressing p61 BRAF(V600E)", "value": "failure of PLX4032 to effectively inhibit ERK signaling"}, {"measurement": "inhibition of ERK signaling", "setting": "[6]; parental SKMEL-239 cells expressing p61 BRAF(V600E)", "value": "failure of PLX4032 to effectively inhibit ERK signaling"}, {"measurement": "sensitivity of ERK signaling", "setting": "[7]", "value": "remained sensitive"}, {"measurement": "growth sensitivity to vemurafenib treatment", "setting": "[8]; M395 R (amplified V600EB-RAF)", "value": "highly resistant"}, {"measurement": "drug sensitivity at high vemurafenib dosing", "setting": "[8]; vemurafenib from 1 to 50 µM, 72 h, versus M249 R4", "value": "highly sensitive"}]}
